Data on 1 substance can be found in patent publication US7541156B1, “Method of identifying antinociceptive compounds using protease activated receptor-2” (priority 2000, dated 2009).

Entries after “also recorded” stand apart in the source; their conditions may differ.

One test addresses T1, PAR-2 (Homo sapiens, UniProt P55085).
T1 sequence (P55085 26-397): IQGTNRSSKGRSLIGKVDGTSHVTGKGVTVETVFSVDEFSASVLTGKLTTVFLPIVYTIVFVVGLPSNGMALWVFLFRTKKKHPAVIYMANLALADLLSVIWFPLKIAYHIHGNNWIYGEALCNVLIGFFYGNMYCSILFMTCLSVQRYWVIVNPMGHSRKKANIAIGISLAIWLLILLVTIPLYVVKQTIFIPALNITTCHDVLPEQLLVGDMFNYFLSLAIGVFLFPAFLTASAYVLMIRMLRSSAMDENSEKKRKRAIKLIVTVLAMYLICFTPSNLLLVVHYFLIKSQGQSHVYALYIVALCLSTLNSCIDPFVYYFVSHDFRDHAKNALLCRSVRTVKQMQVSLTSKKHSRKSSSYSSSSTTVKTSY
The following applies: Blackhart et al. 1996; cited from earlier work.

In test [1] the test system is pancreatic afferent neurons / spinal segments T8-T10. The test can be described thus: c-FOS expression in spinal cord segments after pancreatic intraductal injection. In kind it is in vivo, rat. As to the method:
Intraductal (pancreatic duct) injection. To administer the necessary peptides directly into the rat pancreatic duct we followed a modified protocol, previously described by Kim et al. (1996). In brief, rats were anesthetized i.p. with nembutal sodium (Abbot Laboratories, Chicago, Ill.) (50 mg/kg body weight). The peritoneum was incised to expose the duodenum and the duodenal loop was pulled out. The pancreatic duct entering the duodenum was identified under dissecting microscope and a small niche was made into the duct with a 30-gauge needle. A polyethylene 10 tubing (0.61 mm outer diameter) (Becton Dickinson and Company, Franklin Lakes, N.J.) was guided into the duct and tied to secure its position. The common bile duct was ligated close to the liver to prevent entry of the injected substance into the liver. Similarly the duct was ligated near its entry into the duodenum. The position of the tube into the pancreatic duct was confirmed by freely flowing bile through the tubing. […] Thirty minutes later Capsaicin 0.5 mg/kg (total volume 500 μl) or vehicle (1×PBS, 10% ETOH, 1% Tween) was injected to half of the AcPep or CoPep injected rats. Three rats were included in each treatment group (n=3 for number of experiments). The tubing was carefully removed and bile flow from the liver into the duodenum was re-established. The abdominal cavity was closed with sutures. Rats were sacrificed 2.5 hrs after the initial injection.
C-fos staining. Rats were anesthetized with sodium pentobarbital (50 mg/kg i.p.) and perfused with 200 mls PBS followed by 500 mls ice-cold freshly prepared 4% paraformaldehyde in PBS. Spinal cord (level T5-T13) was removed, post-fixed in 4% paraformaldehyde for 18 hrs at 4° C. and placed in PBS (pH 7.4) containing 30% sucrose for 24 hrs at 4° C. Frozen sections (40 μm) were cut on a cryostat and stored as floating sections in PBS at 4° C. Every third section was stained for c-fos with a rabbit polyclonal serum, 1:1000 dilution, (c-fos, Ab-5, Oncogene Research Products) utilizing manufacturer's protocol. Antibody staining was visualized using a biotinylated secondary antisera and Vectastain ABC peroxidase kit with DAB as substrate. Sections were mounted on Superfrost Plus slides (VWR Scientific, West Chester, Pa.) and dehydrated. The number of c-FOS immunoreactive (IR) neurons were counted in 10 randomly chosen sections per segment under brightfield illumination and then averaged.
Statistics. Release data are presented as the mean± standard error of the mean (SEM) of wells from three separate experiments. […] Intraductal injection studies were analyzed using a repeated measure ANOVA and individual means were compared using a Newman-Keuls multiple comparison test. […]

Turning to “SLIGRL (PEPTIDE (1)..(6) PAR-2 activating peptide; listed as Rattus sp.) [AcPep]”, the “activation of PAR-2” value in the test with PAR-2 was “only activates PAR-2”. The “c-FOS IR neurons in segments T8-T10, peptide alone” value in test [1] (100 μM infused into the pancreatic duct, 2.5 hours, compared to CoPep) is “more c-FOS IR neurons; also recorded: does increase c-FOS expression”. In addition, in test [1] (intraductal injection of AcPep 10 μM, 2.5 hours later, compared to control rats), the “c-FOS expression in spinal segments T8-T10, peptide alone” value is “significantly increased”. For the same substance, the “Capsaicin-evoked c-FOS expression in segments T8-T10” value in test [1] (peptide 100 μM intraductal, followed 30 min later by Capsaicin 0.5 mg/kg, 2.5 hours) is given as “more c-FOS; also recorded: enhanced Capsaicin-evoked c-FOS expression”.
